We go through three compounds from patent US5985910A, “3- [4- (2- Phenyl-Indole-1-ylmethyl) Phenyl]- Acrylamides as estrogenic agents” (priority 1997, dated 1999).

Data set [1] deals with T1, estrogen receptor (Homo sapiens, UniProt P03372).
T1 sequence (P03372 1-595): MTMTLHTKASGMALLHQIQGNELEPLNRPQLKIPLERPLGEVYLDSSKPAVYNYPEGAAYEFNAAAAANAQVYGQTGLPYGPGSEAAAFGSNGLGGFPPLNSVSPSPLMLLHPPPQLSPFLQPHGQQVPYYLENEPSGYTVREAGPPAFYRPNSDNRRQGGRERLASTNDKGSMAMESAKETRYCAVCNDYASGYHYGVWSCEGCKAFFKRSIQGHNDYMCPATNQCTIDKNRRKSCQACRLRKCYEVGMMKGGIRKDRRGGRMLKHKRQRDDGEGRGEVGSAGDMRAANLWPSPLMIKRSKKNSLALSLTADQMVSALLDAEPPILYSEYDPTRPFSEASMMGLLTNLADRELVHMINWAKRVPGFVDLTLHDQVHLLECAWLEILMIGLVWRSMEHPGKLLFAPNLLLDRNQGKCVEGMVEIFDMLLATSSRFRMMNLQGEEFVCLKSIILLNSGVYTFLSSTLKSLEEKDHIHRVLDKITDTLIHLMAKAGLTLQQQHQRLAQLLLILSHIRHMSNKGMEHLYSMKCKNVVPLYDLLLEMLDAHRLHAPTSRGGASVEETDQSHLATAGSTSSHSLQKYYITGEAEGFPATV
The data set is described as follows: 2X VIT ERE Transfection (luciferase) Assay in CHO cells. It counts as cell-based. The arrangement: expressed in transfected cells; host or cells: Chinese Hamster Ovary (CHO) cells, stably transfected. On the procedure: 2X VIT ERE Transfection Assay
(§1) Cell Maintenance and Treatment
Chinese Hamster Ovary cells (CHO) which had been stably transfected with the human estrogen receptor were maintained in DMEM+10% fetal bovine serum (FBS). 48 h prior to treatment the growth medium was replaced with DMEM lacking phenol red +10% dextran coated charcoal stripped FBS (treatment medium). Cells were plated at a density of 5000 cells/well in 96-well plates containing 200 μL of medium/well.
Calcium Phoshate Transfection
Reporter DNA (Promega plasmid pGL2 containing two tandem copies of the vitellogenin ERE in front of the minimal thymidine kinase promoter driving the luciferase gene) was combined with the B-galactosidase expression plasmid pCH110 (Pharmacia) and carrier DNA (pTZ18U) in the following ratio:
20 uL of this mixture was added to each well of cells and remained on the cells for 16 h. […] Each treatment condition was performed on 8 wells (n=8) which were incubated for 24 h prior to the luciferase assay.
After removing the PBS, 25 uL of Promega lysis buffer was added to each well and allowed to stand at room temperature for 15 min, followed by 15 min at -80° C. and 15 min at 37° C. 20 uL of lysate was transferred to an opaque 96 well plate for luciferase activity evaluation and the remaining lysate (5 uL) was used for the B-galactosidase activity evaluation (normalize transfection). The luciferan substrate (Promega) was added in 100 uL aliquots to each well automatically by the luminometer and the light produced (relative light units) was read 10 seconds after addition.
To the remaining 5 uL of lysate 45 uL of PBS was added. Then 50 uL of Promega B-galactosidase 2× assay buffer was added, mixed well and incubated at 37° C. for 1 hour. A plate containing a standard curve (0.1 to 1.5 milliunits in triplicate) was set up for each experimental run. The plates were analyzed on a Molecular Devices spectrophotometric plate reader at 410 nm. The optical densities for the unknown were converted to milliunits of activity by mathematical extrapolation from the standard curve.
The luciferase data was generated as relative light units (RLUs) accumulated during a 10 second measurement and automatically transferred to a JMP (SAS Inc) file where background RLUs were subtracted. The B-galactosidase values were automatically imported into the file and these values were divided into the RLUs to normalize the data. The mean and standard deviations were determined from a n=8 for each treatment. […] These techniques are described by Tzukerman, M. T., Esty, A., Santiso-Mere, D., Danielian, P., Parker, M. G., Stein, R. B., Pike, J. W. and McDonnel, D. P. (1994). Human estrogen receptor transactivational capacity was determined by both cellular and promoter context and mediated by two functionally distinct intramolecular regions (see Molecular Endocrinology, 8:21-30).

The target of data set [2] is T1, estrogen receptor. The data set is described as follows: In Vitro Estrogen Receptor Binding Assay ([3H]-17β-estradiol competition, cytosol of CHO cells overexpressing the estrogen receptor). The arrangement: made in house; host or cells: CHO cells overexpressing the receptor; 100,000 g cytosol. On the procedure:
In Vitro Estrogen Receptor Bonding Assay
CHO cells overexpressing the estrogen receptor were grown in 150 mm^2 dishes in DMEM+10% dextran coated charcoal, stripped fetal bovine serum. The plates were washed twice with PBS and once with 10 mM Tris-HCl, pH 7.4, 1 mM EDTA. Cells were harvested by scraping the surface and then the cell suspension was placed on ice. Cells were disrupted with a hand-held motorized tissue grinder using two, 10-second bursts. […] The cytosol was then frozen and stored at -80° C. Protein concentration of the cytosol was estimated using the BCA assay with reference standard protein.
100 uG/100 uL of the receptor preparation was aliquoted per well. […] The plate was incubated at room temperature for 2.5 h. […] 200 uL of the supernatant solution was then removed for scintillation counting. Samples were counted to 2% or 10 minutes, whichever occurs first. […] Also, wells containing radioactivity but no cytosol were processed with charcoal to estimate unremovable DPM of [^3 H] […].
Counts per minute (CPM) of radioactivity were automatically converted to disintegrated per minute (DPM) by the Beckman LS 7500 Scintillation Counter using a set of quenched standards to generate a H# for each sample.
((DPM sample-DPM not removed by charcoal)/(DPM estradiol-DPM not removed by charcoal))×100%=% of estradiol binding
For the generation of IC50 curves, % binding is plotted vs compound. […] For a description of these methods, see Hulme, E. C., ed. […] Receptor-Ligand Interactions: A Practical Approach. IRL Press, New York (see especially chapter 8).

In data set [3] the test system is Ishikawa cells. The data set is described as follows: Ishikawa Cell Alkaline Phosphatase Assay. The format is cell-based, human. To be noted: for % Activation (Compound ± 1 nM 17β-estradiol) (alkaline phosphatase): 10^-6 M compound + 1 nM 17β-estradiol, 48 h (antiestrogen test); for % Activation (alkaline phosphatase): compound alone, 48 h, percent of response related to 1 nM 17β-estradiol. On the procedure: Ishikawa Cell Alkaline Phosphatase Assay
as §1
Ishikawa cells were maintained in DMEM/F12 (50%:50%) containing phenol red+10% fetal bovine serum and the medium was supplemented with 2 mM Glutamax, 1% Pen/Strap and 1 mM sodium pyruvate. Five days prior to the beginning of each experiment (treatment of cells) the medium was changed to phenol red-free DMEM/F12+10% dextran coated charcoal stripped serum. On the day before treatment, cells were harvested using 0.5% trypsin/EDTA and plated at a density of 5×10^4 cells/well in 96-well tissue culture plates. […] Cells were treated for 48 h prior to assay. […] Sample population for at each dose was n=8.
Alkaline Phosphatase Assay
At the end of 48 h the media is aspirated and cells are washed three times with phosphate buffered saline (PBS). 50 μL of lysis buffer (0.1 M Tris-HCl, pH 9.8, 0.2% Triton X-100) is added to each well. Plates are placed at -80° C. for a minimum of 15 minutes. Plates are thawed at 37° C. followed by the addition of 150 μL of 0.1 M Tris-HCl, pH 9.8, containing 4 mM para-nitrophenylphosphate (pNPP) to each well (final concentration, 3 mM pNPP).
Absorbance and slope calculations were made using the KineticCalc Application program (Bio-Tek Instruments, Inc., Winooski, Vt.). Results are expressed as the mean +/-S.D. of the rate of enzyme reaction (slope) averaged over the linear portion of the kinetic reaction curve (optical density readings every 5 minutes for 30 minutes absorbance reading).
Various compounds were assayed for estrogenic activity by the alkaline phosphatase method and corresponding ED50 values (95% C.I.) were calculated. The four listed in the following were used as reference standards:
A description of such methods is provided by Holinka, C. F., Hata, H., Kuramoto, H. and Gurpide, E. (1986) Effects of steroid hormones and antisteroids on alkaline phosphatase activity in human endometrial cancer cells (Ishikawa Line). Cancer Research, 46:2771-2774, and by Littlefield, B. A., Gurpide, E., Markiewicz, L., McKinley, B. and by Hochberg, R. B. (1990) A simple and sensitive microtiter plate estrogen bioassay based on stimulation alkaline phosphatase in Ishikawa cells; Estrogen action of D5 adrenal steroids. Endocrinology, 6:2757-2762.

The test system of data set [4] is uteri. The data set is described as follows: Rat Uterotrophic/Antiuterotrophic Bioassay (results headed 3-Day Ovariectomized Rat Model). It counts as in vivo, rat (Sprague-Dawley). The protocol: Rat Uterotrophic/Antiuterotrophic Bioassay
Immature Sprague-Dawley rats (female, 18 days old) were tested in groups of six. […] On day 4 the animals were sacrificed by CO2 asphyxiation and their uteri were removed and stripped of excess lipid, any fluid removed and the wet weight determined. A small section of one horn was submitted for histology and the remainder used to isolate total RNA in order to evaluate complement component 3 gene expression.

Data set [5] relates to ovariectomized rat. The following applies: background, cited from earlier work.
Data set [6] deals with bone. The following applies: background; cited from earlier work.
Data set [7] has as its system uterus. To be noted: background; cited from earlier work.

Consider `CCCCN(CCCC)C(=O)/C=C/c1ccc(Cn2c(-c3ccc(O)cc3)c(C)c3cc(O)ccc32)cc1` [Example 11, (E)-N,N-Dibutyl-3-{4-[5-hydroxy-2-(4-hydroxy-phenyl)-3-methyl-indol-1-ylmethyl]-phenyl}-acrylamide], for which, in data set [1] (1 uM compound + 1 nM 17β-estradiol, 24 h (antagonism)), the “% Activation with 1 nM 17β-estradiol (luciferase)” value is given as 12%. The activation at 1 µM in data set [1] (CHO, 24 h) worked out at 8%. Also, the “Estrogen Receptor Affinity (RBA)” value in data set [2] was found to be 80. For the same compound, in data set [3], the “% Activation (Compound ± 1 nM 17β-estradiol) (alkaline phosphatase)” value was 11% and the “% Activation (alkaline phosphatase)” value is 6%. For the same compound, in data set [4] (100 μG compound + 1 μG 17β-estradiol, estradiol alone: Example 11 group 90.8, Examples 14/15 group 95.5 mg), the “uterine wet weight, 100 μG plus 1 μG 17β-Estradiol” value is 81.0 mg.
Take `O=C(c1ccc(OCCN2CCCCC2)cc1)c1c(-c2ccc(O)cc2)sc2cc(O)ccc12` [raloxifene]: the “% Activation (alkaline phosphatase)” value in data set [3] was 5%. Further, the “ability to spare bone (in words)” value in data set [5] is listed as “maintaining the ability to spare bone”. The “stimulation of uterine growth (in words)” value in data set [5] (compared with Tamoxifen) is listed as “stimulate uterine growth in the ovariectomized rat to a lesser extent than Tamoxifen”.
`CC/C(=C(\c1ccccc1)c1ccc(OCCN(C)C)cc1)c1ccccc1` [tamoxifen]: the “effect on the bone in humans (in words)” value in data set [6] is reported as “estrogen agonist like effect on the bone”. For the same compound, the “effect in the uterus (in words)” value in data set [7] is listed as “partial agonist in the uterus”. Also, in data set [3], the “% Activation (Compound ± 1 nM 17β-estradiol) (alkaline phosphatase)” value is listed as 45% and the “% Activation (alkaline phosphatase)” value is reported as 0%. The “uterine wet weight, 10 μG” value in data set [4] (10 μG compound, controls: tamoxifen/raloxifene 42.7, Example 7 20.2, Example 12 31.4, Example 11 24.5, Examples 14/15 29.1 mg) was determined as 69.6 mg. Also, the “uterine wet weight, 100 μG” value in data set [4] (100 μG compound, controls: tamoxifen/raloxifene 42.7, Example 7 20.2, Example 12 31.4, Example 11 24.5, Examples 14/15 29.1 mg) is 71.4 mg.
